Experimental data published in patent US20240041976A1, “COMPOSITION AND USE” (priority 2020, published 2024).

What was measured:
Assay in all cases: microbe, parasite or virus in culture
S. haemolyticus 4073 = conditions: for MIC of the component in combination: 4073
Procedure: (§1) Growth inhibition assays were performed in 96-well microtiter plates as described previously (Chi and Holo, 2018, supra). Briefly, 135 μl of TSB were dispensed in each well of a microtiter plate (according to the number of bacterial strains tested) except in the wells of the first row. The antimicrobials were diluted in TSB to working concentrations in a final volume of 285 μl and dispensed in the wells of the first row. The working concentrations were 100 μg/μl for garvicin KS, 10 μg/μl for micrococcin P1 and 1 mg/ml for penicillin G. From the first row, 150 μl of the antimicrobials were then serially diluted (two-fold dilutions) in a sequential fashion until the last row of the plate. Finally, 15 μl of a fresh O/N culture of each strain were added in the appropriate wells to reach a final volume of 150 μl in each well. The plates were then incubated at 37° C. for 24 h. The growth inhibition was expressed as minimum inhibitory concentration (MIC50), which refers to the minimum concentration of the antimicrobial needed to reduce at least 50% of the microbial growth compared to the untreated control. The MIC50 was assessed by optical density readings at 600 nm (O.D.600).
(§2) Synergistic interactions between antimicrobials were determined using the fractional inhibition concentration (FIC). The FIC values were calculated as follows: the sum of the FIC =FICa+FICb+FICc, where the FICa means MIC of A in combination/MIC of A alone, FICb means MIC of B in combination/MIC of B, and FICc means MIC of C in combination/MIC of C alone. Effects were considered as synergistic if FIC was ≤0.5 for two components mixture and ≤0.75 for three components mixture.
(§3) Bacteriocins and antimicrobial assays. […] These bacteriocins were all solubilized in 0.1% (vol/vol) trifluoracetic acid (TFA; Sigma-Aldrich). […] Cell growth inhibition assays and antimicrobial synergy determination was performed in line with Example 1.
(§4) To investigate whether there was synergy between the three bacteriocins (K1-EJ, GarKS and MP1), a checkboard antimicrobial assay was performed. The selected strains were treated for 5, 24 and 48 h with a range of concentrations of K1-EJ, GarKS and MP1 alone or in different combinations.

S. haemolyticus 4068 = conditions: for MIC of the component in combination: 4068
Procedure: as §1, §2, §3, §4

S. haemolyticus 4071 = conditions: for MIC of the component in combination: 4071
Procedure: as §1, §2, §3, §4

S. haemolyticus 4070 = conditions: for MIC of the component in combination: 4070
Procedure: as §1, §2, §3, §4

S. haemolyticus 4072 = conditions: for MIC of the component in combination: 4072
Procedure: as §1, §2, §3, §4

S. haemolyticus 4069 = conditions: for MIC of the component in combination: 4069
Procedure: as §1, §2, §3, §4

C/C=C(\NC(=O)c1csc(-c2csc(-c3ccc4c(n3)-c3csc(n3)[C@H]([C@@H](C)O)NC(=O)c3csc(n3)[C@H](C(C)C)NC(=O)c3csc(n3)/C(=C/C)NC(=O)[C@H]([C@@H](C)O)NC(=O)c3csc-4n3)n2)n1)C(=O)NC[C@@H](C)O [MP1, micrococcin P1]
MIC of the component in combination (S. haemolyticus 4073; 5 h, GarKS + MP1): 0.02 µg/mL | MIC of the component in combination (S. haemolyticus 4073; 5 h, K1-EJ + GarKS + MP1): 0.033 µg/mL | MIC of the component in combination (S. haemolyticus 4073; 5 h, K1-EJ + MP1): 0.02 µg/mL | MIC of the component in combination (S. haemolyticus 4073; 24 h, GarKS + MP1): 0.073 µg/mL | MIC of the component in combination (S. haemolyticus 4073; 24 h, K1-EJ + GarKS + MP1): 0.078 µg/mL | MIC of the component in combination (S. haemolyticus 4073; 24 h, K1-EJ + MP1): 0.036 µg/mL | MIC of the component in combination (S. haemolyticus 4073; 48 h, GarKS + MP1): 0.083 µg/mL | MIC of the component in combination (S. haemolyticus 4073; 48 h, K1-EJ + GarKS + MP1): 0.16 µg/mL | MIC of the component in combination (S. haemolyticus 4073; 48 h, K1-EJ + MP1): 0.01 µg/mL | MIC (S. haemolyticus 4073; Staphylococcus haemolyticus, 4073, 5 h): 0.022 µg/mL | MIC (S. haemolyticus 4073; Staphylococcus haemolyticus, 4073, 24 h): 0.072 µg/mL | MIC (S. haemolyticus 4073; Staphylococcus haemolyticus, 4073, 48 h): 0.14 µg/mL | MIC of the component in combination (S. haemolyticus 4068; 5 h, GarKS + MP1): 0.02 µg/mL | MIC of the component in combination (S. haemolyticus 4068; 5 h, K1-EJ + GarKS + MP1): 0.032 µg/mL | MIC of the component in combination (S. haemolyticus 4068; 5 h, K1-EJ + MP1): 0.02 µg/mL | MIC of the component in combination (S. haemolyticus 4068; 24 h, GarKS + MP1): 0.032 µg/mL | MIC of the component in combination (S. haemolyticus 4068; 24 h, K1-EJ + GarKS + MP1): 0.078 µg/mL | MIC of the component in combination (S. haemolyticus 4068; 24 h, K1-EJ + MP1): 0.078 µg/mL | MIC of the component in combination (S. haemolyticus 4068; 48 h, GarKS + MP1): 0.068 µg/mL | MIC of the component in combination (S. haemolyticus 4068; 48 h, K1-EJ + GarKS + MP1): 0.28 µg/mL | MIC of the component in combination (S. haemolyticus 4068; 48 h, K1-EJ + MP1): 0.072 µg/mL | MIC (S. haemolyticus 4068; Staphylococcus haemolyticus, 4068, 5 h): 0.02 µg/mL | MIC (S. haemolyticus 4068; Staphylococcus haemolyticus, 4068, 24 h): 0.023 µg/mL | MIC (S. haemolyticus 4068; Staphylococcus haemolyticus, 4068, 48 h): 0.078 µg/mL | MIC of the component in combination (S. haemolyticus 4071; 5 h, GarKS + MP1): 0.068 µg/mL | MIC of the component in combination (S. haemolyticus 4071; 5 h, K1-EJ + GarKS + MP1): 0.072 µg/mL | MIC of the component in combination (S. haemolyticus 4071; 5 h, K1-EJ + MP1): 0.042 µg/mL | MIC of the component in combination (S. haemolyticus 4071; 24 h, GarKS + MP1): 0.63 µg/mL | MIC of the component in combination (S. haemolyticus 4071; 24 h, K1-EJ + GarKS + MP1): 0.16 µg/mL | MIC of the component in combination (S. haemolyticus 4071; 24 h, K1-EJ + MP1): 0.14 µg/mL | MIC of the component in combination (S. haemolyticus 4071; 48 h, GarKS + MP1): 0.65 µg/mL | MIC of the component in combination (S. haemolyticus 4071; 48 h, K1-EJ + GarKS + MP1): 0.33 µg/mL | MIC of the component in combination (S. haemolyticus 4071; 48 h, K1-EJ + MP1): 0.3 µg/mL | MIC (S. haemolyticus 4071; Staphylococcus haemolyticus, 4071, 5 h): 0.043 µg/mL | MIC (S. haemolyticus 4071; Staphylococcus haemolyticus, 4071, 24 h): > 10 µg/mL | MIC (S. haemolyticus 4071; Staphylococcus haemolyticus, 4071, 48 h): > 10 µg/mL | MIC of the component in combination (S. haemolyticus 4070; 5 h, GarKS + MP1): 0.02 µg/mL | MIC of the component in combination (S. haemolyticus 4070; 5 h, K1-EJ + GarKS + MP1): 0.032 µg/mL | MIC of the component in combination (S. haemolyticus 4070; 5 h, K1-EJ + MP1): 0.02 µg/mL | MIC of the component in combination (S. haemolyticus 4070; 24 h, GarKS + MP1): 0.33 µg/mL | MIC of the component in combination (S. haemolyticus 4070; 24 h, K1-EJ + GarKS + MP1): 0.28 µg/mL | MIC of the component in combination (S. haemolyticus 4070; 24 h, K1-EJ + MP1): 0.28 µg/mL | MIC of the component in combination (S. haemolyticus 4070; 48 h, GarKS + MP1): 0.63 µg/mL | MIC of the component in combination (S. haemolyticus 4070; 48 h, K1-EJ + GarKS + MP1): 0.58 µg/mL | MIC of the component in combination (S. haemolyticus 4070; 48 h, K1-EJ + MP1): 0.6 µg/mL | MIC (S. haemolyticus 4070; Staphylococcus haemolyticus, 4070, 5 h): 0.02 µg/mL | MIC (S. haemolyticus 4070; Staphylococcus haemolyticus, 4070, 24 h): 0.33 µg/mL | MIC (S. haemolyticus 4070; Staphylococcus haemolyticus, 4070, 48 h): 0.13 µg/mL | MIC of the component in combination (S. haemolyticus 4072; 5 h, GarKS + MP1): 0.073 µg/mL | MIC of the component in combination (S. haemolyticus 4072; 5 h, K1-EJ + GarKS + MP1): 0.068 µg/mL | MIC of the component in combination (S. haemolyticus 4072; 5 h, K1-EJ + MP1): 0.036 µg/mL | MIC of the component in combination (S. haemolyticus 4072; 24 h, GarKS + MP1): 0.16 µg/mL | MIC of the component in combination (S. haemolyticus 4072; 24 h, K1-EJ + GarKS + MP1): 0.16 µg/mL | MIC of the component in combination (S. haemolyticus 4072; 24 h, K1-EJ + MP1): 0.15 µg/mL | MIC of the component in combination (S. haemolyticus 4072; 48 h, GarKS + MP1): 0.31 µg/mL | MIC of the component in combination (S. haemolyticus 4072; 48 h, K1-EJ + GarKS + MP1): 0.58 µg/mL | MIC of the component in combination (S. haemolyticus 4072; 48 h, K1-EJ + MP1): 0.16 µg/mL | MIC (S. haemolyticus 4072; Staphylococcus haemolyticus, 4072, 5 h): 0.039 µg/mL | MIC (S. haemolyticus 4072; Staphylococcus haemolyticus, 4072, 24 h): > 10 µg/mL | MIC (S. haemolyticus 4072; Staphylococcus haemolyticus, 4072, 48 h): 0.63 µg/mL | MIC of the component in combination (S. haemolyticus 4069; 5 h, GarKS + MP1): 0.16 µg/mL | MIC of the component in combination (S. haemolyticus 4069; 5 h, K1-EJ + GarKS + MP1): 0.068 µg/mL | MIC of the component in combination (S. haemolyticus 4069; 5 h, K1-EJ + MP1): 0.15 µg/mL | MIC of the component in combination (S. haemolyticus 4069; 24 h, GarKS + MP1): 2.5 µg/mL | MIC of the component in combination (S. haemolyticus 4069; 24 h, K1-EJ + GarKS + MP1): 0.33 µg/mL | MIC of the component in combination (S. haemolyticus 4069; 24 h, K1-EJ + MP1): 2.3 µg/mL | MIC of the component in combination (S. haemolyticus 4069; 48 h, GarKS + MP1): 5 µg/mL | MIC of the component in combination (S. haemolyticus 4069; 48 h, K1-EJ + GarKS + MP1): 0.58 µg/mL | MIC of the component in combination (S. haemolyticus 4069; 48 h, K1-EJ + MP1): 4.8 µg/mL | MIC (S. haemolyticus 4069; Staphylococcus haemolyticus, 4069, 5 h): 0.15 µg/mL | MIC (S. haemolyticus 4069; Staphylococcus haemolyticus, 4069, 24 h): > 10 µg/mL | MIC (S. haemolyticus 4069; Staphylococcus haemolyticus, 4069, 48 h): > 10 µg/mL
